In ChEMBL document CHEMBL1130615, “Synthesis, DNA-damaging and cytotoxic properties of novel topoisomerase II-directed bisantrene analogues” (Bioorg Med Chem Lett, 1998):
pIC50: −log10 of the molar value.

How the values were obtained:
A2780 = assay: Cell cytotoxicity was determined against human ovarian cancer (A2780) cell line; assay type: functional, cell-based
HL-60 = assay: Cell cytotoxicity was determined against human promyelocytic leukemia (HL60) cell line; assay type: functional, cell-based
[1] = biological target: T1, DNA topoisomerase II (Homo sapiens) (UniProt P11388+Q02880); assay: Percent of DNA remaining uncut after incubation with Topoisomerase II at 10 uM concentration; assay type: protein assay
[2] = biological target: T1, DNA topoisomerase II (Homo sapiens); assay: Percent of DNA remaining uncut after incubation with Topoisomerase II at 0.1 uM concentration; assay type: protein assay
[3] = biological target: T1, DNA topoisomerase II (Homo sapiens); assay: Percent of DNA remaining uncut after incubation with Topoisomerase II at 1 uM concentration; assay type: protein assay

| SMILES | Uncut DNA [1] [%] | Uncut DNA [2] [%] | Uncut DNA [3] [%] | pIC50 (A2780) | pIC50 (HL-60) |
| --- | --- | --- | --- | --- | --- |
| C(=N\NC1=NCCN1)/c1c2ccccc2c(/C=N/NC2=NCCN2)c2ccccc12 [BISANTRENE] | 57 | 14 | 46 | 6.47 | 6.52 |
| C(=N\NC1=NCCN1)/c1cccc2cc3ccccc3cc12 | 20 | 56 | 48 | 4.73 | 4.64 |
| C(=N\NC1=NCCN1)/c1ccc(/C=N/NC2=NCCN2)c2cc3ccccc3cc12 | 95 | 54 | 103 | 5.32 | 4.95 |
| COc1cc(NS(C)(=O)=O)ccc1Nc1c2ccccc2nc2ccccc12 [AMSACRINE] | 1 | 12 | 4 | 6.46 | 6.40 |

Further lines, with some results ahead:

| Uncut DNA [1] [%] | Uncut DNA [2] [%] | Uncut DNA [3] [%] | SMILES | pIC50 (A2780) | pIC50 (HL-60) |
| --- | --- | --- | --- | --- | --- |
| 25 | 51 | 38 | C(=N\NC1=NCCN1)/c1c2ccccc2nc2ccccc12 | 4.55 | 4.32 |
| 11 | 41 | 30 | C(=N\NC1=NCCN1)/c1c2ccccc2cc2ccccc12 | 4.42 | 4.13 |
